One series concerns MDA-MB-231. As to the kind of experiment: Cytotoxicity against ROR1-positive human MDA-MB-231 cells assessed as decrease in cell viability incubated for 24 hrs by CCK-8 assay. Format: functional, cell-based. Conditions: MDA-MB-231, 24 h. A general note: Formazan colour is commonly taken as a measure of viable cells.
A further series concerns SK-HEP1. Description: Cytotoxicity against human SK-HEP1 cells assessed as decrease in cell viability incubated for 24 hrs by CCK-8 assay. The conditions noted are these: SK-HEP1, 24 h. Format: functional, cell-based.
Series [1] concerns MCF7. As to the kind of experiment: Cytotoxicity against ROR1-negative human MCF7 cells assessed as decrease in cell viability incubated for 24 hrs by CCK-8 assay. It counts as functional, cell-based. Conditions: MCF7, 24 h.
Series [2] is described as follows: Cytotoxicity against human MCF-10A cells assessed as decrease in cell viability incubated for 24 hrs by CCK-8 assay. It counts as toxicity, cell-based.
The target in series [3] is T1, Inactive tyrosine-protein kinase transmembrane receptor ROR1 (Homo sapiens, UniProt Q01973). As to the kind of experiment: Binding affinity to N-terminal His/GST-tagged recombinant human ROR1 (453 to 783 residues) extracted from baculovirus infected insect cells assessed as dissociation constant by SPR analysis. On the technique in general: In SPR one partner is held on a chip, and binding of the other changes the refractive index at the surface.

Series [4] has as its target T1, Inactive tyrosine-protein kinase transmembrane receptor ROR1. As to the kind of experiment: Binding affinity to ROR1 positive human MDA-MB-231 cells at 10 uM administered as FITC-labeled compound and measured after 30 mins by Hoechst 33342 staining based confocal fluorescence microscopic analysis. Format: cell-based.
The test system of series [5] is MCF7. As to the kind of experiment: Binding affinity to ROR1 negative human MCF7 cells at 10 uM administered as FITC-labeled compound and measured after 30 mins by Hoechst 33342 staining based confocal fluorescence microscopic analysis. It counts as functional, cell-based.
For another series, the species on record is Homo sapiens. Description: Binding affinity to CD16A (unknown origin) by SPR analysis.

pIC50, pKd: −log10 of the molar value. Active and inactive are the calls of the source. The calls are words filed in the database; no cut-off is given here. *1 amine or outer side, *2 acyl side, *3 side chain or, on linkers, in order; H or OH if unused. Where a SMILES comes first, the peptide text is derived from it. [ ]: non-standard residue; d: D form. The star is where a group is joined. ξ: configuration not given here. Glutaryl(5-(14-O-Dox)) = COc1cccc2c1C(=O)c1c(O)c3c(c(O)c1C2=O)C[C@@](O)(C(=O)COC(=O)CCCC(=O)*)C[C@@H]3O[C@H]1C[C@H](N)[C@H](O)[C@H](C)O1; X7 = COc1cccc2c1C(=O)c1c(O)c3c(c(O)c1C2=O)C[C@@](O)(C(=O)CO)C[C@@H]3O[C@H]1C[C@H](NC(=O)CCCCCN2C(=O)CC(*)C2=O)[C@H](O)[C@H](C)O1; X5 = O=C(O)CCCCCCCCCCCCCCCCC(=O)NC(CCC(=O)NCCOCCOCC(=O)NCCOCCOCC(=O)NC(CCCCNC(=O)CCN1C(=O)CC(*)C1=O)C(=O)O)C(=O)O; X3 = CC(C)C(NC(=O)CCCCCN1C(=O)CC(*)C1=O)C(=O)NC(CCCNC(N)=O)C(=O)Nc1ccc(OCC2OC(n3ccc(N)nc3=O)C(F)(F)C2O)cc1; X6 = Nc1ccn(C2OC(COC(=O)CCCCCN3C(=O)CC(*)C3=O)C(O)C2(F)F)c(=O)n1; X2 = NC(=O)C[C@H](N[*:1])C(=O)C[C@@H](CC(=O)O)C(=O)[*:2]; X4 = Nc1ccn(C2OC(COC(=O)CCCC(=O)*)C(O)C2(F)F)c(=O)n1; C18 diacid = O=C(O)CCCCCCCCCCCCCCCCC(=O)*; ξγGlu = O=C(O)C(CCC(=O)[*:2])N[*:1]; AEEA = NCCOCCOCC(=O)O

One may read the pIC50 as the negative decadic logarithm of the IC50, by convention in mol/L. By IC50 is commonly meant the concentration that gives 50% inhibition. What is called pKd is the negative decadic logarithm of the Kd, by convention in mol/L.

T1 sequence (Q01973 whole entry, the tested form may be a part): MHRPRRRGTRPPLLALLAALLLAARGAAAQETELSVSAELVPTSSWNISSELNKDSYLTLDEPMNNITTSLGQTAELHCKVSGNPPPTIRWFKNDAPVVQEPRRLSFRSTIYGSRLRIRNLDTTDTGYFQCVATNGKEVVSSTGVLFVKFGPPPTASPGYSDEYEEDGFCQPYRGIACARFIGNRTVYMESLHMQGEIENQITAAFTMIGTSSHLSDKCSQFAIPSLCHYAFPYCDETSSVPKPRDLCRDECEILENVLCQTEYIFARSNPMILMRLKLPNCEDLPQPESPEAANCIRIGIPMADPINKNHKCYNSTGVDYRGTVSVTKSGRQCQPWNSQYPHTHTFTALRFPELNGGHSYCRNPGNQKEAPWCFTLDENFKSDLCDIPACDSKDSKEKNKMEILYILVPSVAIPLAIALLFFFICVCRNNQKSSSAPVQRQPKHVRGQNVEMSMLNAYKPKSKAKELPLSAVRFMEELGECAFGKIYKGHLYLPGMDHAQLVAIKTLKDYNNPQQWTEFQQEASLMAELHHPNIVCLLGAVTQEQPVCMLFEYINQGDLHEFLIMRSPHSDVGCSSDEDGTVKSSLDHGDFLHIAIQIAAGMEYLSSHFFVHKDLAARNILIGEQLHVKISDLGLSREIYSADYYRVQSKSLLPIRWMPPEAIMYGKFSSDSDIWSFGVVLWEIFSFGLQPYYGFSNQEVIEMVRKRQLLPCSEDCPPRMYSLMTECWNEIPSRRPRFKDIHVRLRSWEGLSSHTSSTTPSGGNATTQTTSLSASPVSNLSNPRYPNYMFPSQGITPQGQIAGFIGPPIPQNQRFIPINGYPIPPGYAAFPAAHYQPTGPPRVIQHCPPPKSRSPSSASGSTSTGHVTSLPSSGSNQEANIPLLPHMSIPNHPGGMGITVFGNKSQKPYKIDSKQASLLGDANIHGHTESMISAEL

For the compound `CC[C@H](C)[C@H](NC(=O)[C@H](CC(=O)O)NC(=O)[C@H](CO)NC(=O)CNC(=O)[C@H](CSC1CC(=O)N(CCCCCC(=O)OCC2OC(n3ccc(N)nc3=O)C(F)(F)C2O)C1=O)NC(=O)CNC(=O)[C@H](CCCCN)NC(=O)COCCOCCNC(=O)COCCOCCNC(=O)CCC(NC(=O)CCCCCCCCCCCCCCCCC(=O)O)C(=O)O)C(=O)N[C@@H](CC(N)=O)C(=O)N[C@@H](CC(=O)O)C(=O)N[C@@H](CCCNC(=N)N)C(=O)N[C@@H](CCC(N)=O)C(=O)N[C@H](C(=O)N1CCC[C@H]1C(=O)NCC(=O)N[C@@H](Cc1ccc(O)cc1)C(=O)N[C@@H](CO)C(=O)N[C@H](C(=O)N[C@@H](Cc1ccc(O)cc1)C(=O)N[C@@H](Cc1c[nH]c2ccccc12)C(=O)NCC(=O)N[C@@H](CC(=O)O)C(=O)N[C@@H](Cc1ccccc1)C(N)=O)[C@@H](C)O)[C@@H](C)CC` (some centres not stated) ({C18 diacid-ξγGlu-AEEA-AEEA}-KGC(X6)GSDINDRQIPGYSTYWGDF-NH2), the pIC50 was 4.80 in the series with MDA-MB-231, 4.58 in the series with SK-HEP1 and 4.78 in the series with MCF7 [1]. Besides, the 50% inhibitory concentration (IC50) at 24 h in series [2] turned out to be 30.1 µM. Moreover, the pKd in series [3] is 6.91.

On to H-SDINDRQI-NH2, for which the negative logarithm of the Kd (pKd) in series [3] was 7.58.

As to `Nc1ccn([C@@H]2O[C@H](CO)[C@@H](O)C2(F)F)c(=O)n1` [GEMCITABINE], the pIC50 in the series with MDA-MB-231 was 5.75; in the series with SK-HEP1 it was 5.44; with MCF7 [1], 5.32. For the same compound, the half-inhibitory concentration (IC50) at 24 h in series [2] came out at 3.23 µM.

For H-INSGPSDINDYPIPGYSTYYGDF-NH2, the pKd in series [3] is 6.15.

As for `CC[C@H](C)[C@H](NC(=O)[C@H](CC(=O)O)NC(=O)[C@H](CO)NC(=O)CNC(=O)[C@H](CSC1CC(=O)N(CCCCCC(=O)N[C@H]2C[C@H](O[C@H]3C[C@](O)(C(=O)CO)Cc4c(O)c5c(c(O)c43)C(=O)c3c(OC)cccc3C5=O)O[C@@H](C)[C@H]2O)C1=O)NC(=O)CNC(=O)[C@H](CCCCN)NC(=O)COCCOCCNC(=O)COCCOCCNC(=O)[C@H](CCC(=O)O)NC(=O)CCCCCCCCCCCCCCCCC(=O)O)C(=O)N[C@@H](CC(N)=O)C(=O)N[C@@H](CC(=O)O)C(=O)N[C@@H](CCCNC(=N)N)C(=O)N[C@@H](CCC(N)=O)C(=O)N[C@H](C(=O)N1CCC[C@H]1C(=O)NCC(=O)N[C@@H](Cc1ccc(O)cc1)C(=O)N[C@@H](CO)C(=O)N[C@H](C(=O)N[C@@H](Cc1ccc(O)cc1)C(=O)N[C@@H](Cc1c[nH]c2ccccc12)C(=O)NCC(=O)N[C@@H](CC(=O)O)C(=O)N[C@@H](Cc1ccccc1)C(N)=O)[C@@H](C)O)[C@@H](C)CC` (some centres not stated) ({C18 diacid}-E[AEEA][AEEA]KGC(X7)GSDINDRQIPGYSTYWGDF-NH2), the pIC50 with MDA-MB-231 is 4.84; with SK-HEP1, 4.70; in the series on MCF7 [1] it was 4.45. For the same compound, the half-maximal inhibitory concentration (IC50) at 24 h in series [2] came out at 27.3 µM. The pKd in series [3] was 6.82.

As for H-SDINDYPIPGYSTYYGDF-NH2, in series [3], the pKd is 8.53. Besides, in series [4], the result was Active. In addition, in the series on MCF7 [5], the outcome was inactive. Also, the Activity result in the series filed under Homo sapiens is “Not active; Abnormal Binding Affinity Curves Observed”.

H-INSGPGYSTYYGDF-NH2: the pKd in series [3] is 8.92. For the same compound, the outcome in series [4] was Active. The result with MCF7 [5] was inactive. Further, in the series listed under Homo sapiens, the Activity result was “Not active; Abnormal Binding Affinity Curves Observed”.

`CC[C@H](C)[C@H](NC(=O)[C@H](CC(=O)O)NC(=O)[C@H](CO)NC(=O)CNC(=O)[C@H](CSC1CC(=O)N(CCC(=O)NCCCCC(NC(=O)COCCOCCNC(=O)COCCOCCNC(=O)CCC(NC(=O)CCCCCCCCCCCCCCCCC(=O)O)C(=O)O)C(=O)O)C1=O)NC(=O)CNC(=O)[C@H](CCCCN)NC(=O)CCCC(=O)OCC(=O)[C@]1(O)Cc2c(O)c3c(c(O)c2[C@@H](O[C@H]2C[C@H](N)[C@H](O)[C@H](C)O2)C1)C(=O)c1c(OC)cccc1C3=O)C(=O)N[C@@H](CC(N)=O)C(=O)N[C@@H](CC(=O)O)C(=O)N[C@@H](CCCNC(=N)N)C(=O)N[C@@H](CCC(N)=O)C(=O)N[C@H](C(=O)N1CCC[C@H]1C(=O)NCC(=O)N[C@@H](Cc1ccc(O)cc1)C(=O)N[C@@H](CO)C(=O)N[C@H](C(=O)N[C@@H](Cc1ccc(O)cc1)C(=O)N[C@@H](Cc1c[nH]c2ccccc12)C(=O)NCC(=O)N[C@@H](CC(=O)O)C(=O)N[C@@H](Cc1ccccc1)C(N)=O)[C@@H](C)O)[C@@H](C)CC` (some centres not stated) ({Glutaryl(5-(14-O-Dox))}-KGC(X5)GSDINDRQIPGYSTYWGDF-NH2): the pIC50 with MDA-MB-231 is 5.55; with SK-HEP1, 5.90; in the series on MCF7 [1], 4.77. Moreover, the 50% inhibitory concentration (IC50) at 24 h in series [2] came to 10.1 µM. For the same compound, in series [3], the negative-log Kd (pKd) was 7.18.

As to H-INSGPSDINDRQIPGYSTYWGDF-NH2, the pKd in series [3] is 6.58.

Consider H-GYSTYWGDF-NH2, for which the pKd in series [3] was 6.83.

For the compound H-INSGPSDINDYPI-NH2, in series [3], the pKd was 7.39.

`CC[C@H](C)[C@H](NC(=O)[C@H](CC(=O)O)NC(=O)[C@H](CO)NC(=O)CNC(=O)[C@H](CSC1CC(=O)N(CCCCCC(=O)NC(C(=O)NC(CCCNC(N)=O)C(=O)Nc2ccc(OCC3OC(n4ccc(N)nc4=O)C(F)(F)C3O)cc2)C(C)C)C1=O)NC(=O)CNC(=O)[C@H](CCCCN)NC(=O)COCCOCCNC(=O)COCCOCCNC(=O)CCC(NC(=O)CCCCCCCCCCCCCCCCC(=O)O)C(=O)O)C(=O)N[C@@H](CC(N)=O)C(=O)C[C@@H](CC(=O)O)C(=O)N[C@@H](CCCNC(=N)N)C(=O)N[C@@H](CCC(N)=O)C(=O)N[C@H](C(=O)N1CCC[C@H]1C(=O)NCC(=O)N[C@@H](Cc1ccc(O)cc1)C(=O)N[C@@H](CO)C(=O)N[C@H](C(=O)N[C@@H](Cc1ccc(O)cc1)C(=O)N[C@@H](Cc1c[nH]c2ccccc12)C(=O)NCC(=O)N[C@@H](CC(=O)O)C(=O)N[C@@H](Cc1ccccc1)C(N)=O)[C@@H](C)O)[C@@H](C)CC` (some centres not stated) ({C18 diacid-ξγGlu-AEEA-AEEA}-KGC(X3)GSDI[X2]RQIPGYSTYWGDF-NH2): the pIC50 in the series with MDA-MB-231 was 5.17; with SK-HEP1, 5.91; with MCF7 [1] it was below 4.30. The IC50 at 24 h in series [2] is 14.6 µM. Besides, the pKd in series [3] is 7.55.

Regarding `CC[C@H](C)[C@H](NC(=O)[C@H](CC(=O)O)NC(=O)[C@H](CO)NC(=O)CNC(=O)[C@H](CSC1CC(=O)N(CCC(=O)NCCCCC(NC(=O)COCCOCCNC(=O)COCCOCCNC(=O)CCC(NC(=O)CCCCCCCCCCCCCCCCC(=O)O)C(=O)O)C(=O)O)C1=O)NC(=O)CNC(=O)[C@H](CCCCN)NC(=O)CCCC(=O)OCC1OC(n2ccc(N)nc2=O)C(F)(F)C1O)C(=O)N[C@@H](CC(N)=O)C(=O)N[C@@H](CC(=O)O)C(=O)N[C@@H](CCCNC(=N)N)C(=O)N[C@@H](CCC(N)=O)C(=O)N[C@H](C(=O)N1CCC[C@H]1C(=O)NCC(=O)N[C@@H](Cc1ccc(O)cc1)C(=O)N[C@@H](CO)C(=O)N[C@H](C(=O)N[C@@H](Cc1ccc(O)cc1)C(=O)N[C@@H](Cc1c[nH]c2ccccc12)C(=O)NCC(=O)N[C@@H](CC(=O)O)C(=O)N[C@@H](Cc1ccccc1)C(N)=O)[C@@H](C)O)[C@@H](C)CC` (some centres not stated) (X4-KGC(X5)GSDINDRQIPGYSTYWGDF-NH2), the pIC50 in the series with MDA-MB-231 is 6.52; with SK-HEP1, 5.12; in the series on MCF7 [1] it was 4.75. Moreover, in series [2], the concentration for half-maximal inhibition (IC50) at 24 h is 27.9 µM. Besides, the pKd in series [3] is 7.40.

The values above are taken from ChEMBL document CHEMBL6083182, “Development of Peptide Paratope Mimics Derived from the Anti-ROR1 Antibody and Long-Acting Peptide-Drug Conjugates for Targeted Cancer Therapy” (J Med Chem, 2024).
